# Patent publication US12507703B2, “Methods, devices and compositions for preserving human milk” (The Trustees of Princeton University, priority 2023, dated 2025)
# Where “and” joins values, the source holds several entries; their conditions need not be identical. Identical values can stand only once. Counter-ions that a name gives are not always drawn.
# Tested on: lipase
# Experiment: Lipase/lipolysis assay (EnzChek Lipase Substrate, quenched BODIPY-fatty acid conjugate) on stored human milk; also: test concentration or dose not given here
smiles,measurement,value
O=C([O-])c1ccccc1O.[Na+] [Sodium Salicylate],Lipase (RFU),847.8959 RFU and 820.8026 RFU
O=C([O-])O.[Na+] [Sodium bicarbonate],Lipase (RFU),751.602 RFU
O=C1O[C@H]([C@H](O)CO)C([O-])=C1O.[Na+] [Sodium erythorbate],Lipase (RFU),904.5416 RFU
CCCCCCCC/C=C\CCCCCCCC(=O)[O-].[Na+] [Sodium oleate],Lipase (RFU),985.0339 RFU and 925.2134 RFU
C[C@@H]1CC[C@@]2(NC1)O[C@H]1C[C@H]3[C@@H]4CC=C5C[C@@H](O)CC[C@]5(C)[C@H]4CC[C@]3(C)[C@H]1[C@@H]2C [Solasodine],Lipase (RFU),1073.206 RFU
CC1(C)C[C@H]2C3=CC[C@@H]4[C@@]5(C)CC[C@H](O)[C@](C)(CO)[C@@H]5CC[C@@]4(C)[C@]3(C)CC[C@@]2(C)[C@H](O)[C@@H]1O [Soyasapogenol A],Lipase (RFU),1098.785 RFU
CC1(C)C[C@@H](O)[C@]2(C)CC[C@]3(C)C(=CC[C@@H]4[C@@]5(C)CC[C@H](O)[C@](C)(CO)[C@@H]5CC[C@]43C)[C@@H]2C1 [Soyasapogenol B],Lipase (RFU),1146.412 RFU
CC(=O)OC[C@H]1O[C@@H](O[C@@H]2[C@@H](O)[C@H](O[C@@H]3[C@H](O)C(C)(C)C[C@H]4C5=CC[C@@H]6[C@@]7(C)CC[C@H](O[C@@H]8O[C@H](C(=O)O)[C@@H](O)[C@H](O)[C@H]8O[C@@H]8O[C@H](CO)[C@H](O)[C@H](O)[C@H]8O[C@@H]8O[C@H](CO)[C@@H](O)[C@H](O)[C@H]8O)[C@](C)(CO)[C@@H]7CC[C@@]6(C)[C@]5(C)CC[C@@]34C)OC[C@@H]2O)[C@H](OC(C)=O)[C@@H](OC(C)=O)[C@@H]1OC(C)=O [Soyasaponin Ab],Lipase (RFU),976.6301 RFU
COc1cc2ccc(=O)oc2c2ccoc12 [Sphondin],Lipase (RFU),913.6372 RFU
C[N+]1(C)CCC[C@H]1C(=O)[O-].Cl [Stachydrine hydrochloride],Lipase (RFU),915.6673 RFU
C[N+]1(C)CCC[C@H]1C(=O)[O-] [Stachydrine],Lipase (RFU),1061.585 RFU
O.O.O.O.OC[C@H]1O[C@H](OC[C@H]2O[C@H](OC[C@H]3O[C@H](O[C@]4(CO)O[C@H](CO)[C@@H](O)[C@@H]4O)[C@H](O)[C@@H](O)[C@@H]3O)[C@H](O)[C@@H](O)[C@H]2O)[C@H](O)[C@@H](O)[C@H]1O [Stachyose (tetrahydrate)],Lipase (RFU),648.6527 RFU
OC[C@H]1O[C@H](OC[C@H]2O[C@H](OC[C@H]3O[C@H](O[C@]4(CO)O[C@H](CO)[C@@H](O)[C@@H]4O)[C@H](O)[C@@H](O)[C@@H]3O)[C@H](O)[C@@H](O)[C@H]2O)[C@H](O)[C@@H](O)[C@H]1O [Stachyose],Lipase (RFU),882.4617 RFU
CCCCCCCCCCCCCCCCCC(=O)O[C@H](CC(=O)[O-])C[N+](C)(C)C [Stearoylcarnitine],Lipase (RFU),900.7392 RFU
C=C1C[C@@]23CC[C@H]4[C@@](C)(CCC[C@@]4(C)C(=O)O)[C@@H]2CC[C@]1(O[C@@H]1O[C@H](CO)[C@@H](O)[C@H](O)[C@H]1O[C@@H]1O[C@H](CO)[C@@H](O)[C@H](O)[C@H]1O)C3 [Steviolbioside],Lipase (RFU),1061.907 RFU
COc1cc2oc(=O)ccc2cc1CC=C(C)C [Suberosin],Lipase (RFU),1003.25 RFU
CC1(C)[C@H](C(=O)[O-])N2C(=O)C[C@H]2S1(=O)=O.[Na+] [Sulbactam (sodium)],Lipase (RFU),1191.707 RFU
CC1(C)[C@H](C(=O)O)N2C(=O)C[C@H]2S1(=O)=O [Sulbactam],Lipase (RFU),759.2536 RFU
CC(=O)CCC=C(C)C [Sulcatone],Lipase (RFU),1082.02 RFU
O=S(=O)([O-])c1ccc(N=Nc2c(O)ccc3cc(S(=O)(=O)[O-])ccc23)cc1.[Na+].[Na+] [Sunset Yellow FCF],Lipase (RFU),868.5434 RFU
COc1cc(C=O)cc(OC)c1O [Syringaldehyde],Lipase (RFU),938.0511 RFU and 949.8732 RFU
COc1cc(/C=C/CO)cc(OC)c1O[C@@H]1O[C@H](CO)[C@@H](O)[C@H](O)[C@H]1O [Syringin],Lipase (RFU),935.9617 RFU
C[n+]1cccc(C(N)=O)c1 [TRIA-662],Lipase (RFU),1140.39 RFU
COc1ccc(-c2cc(=O)c3c(OC)c(OC)c(OC)c(OC)c3o2)cc1 [Tangeritin],Lipase (RFU),1254.653 RFU
C=C1CC[C@]2(C)CC[C@]3(C)[C@H](CC[C@@H]4[C@@]5(C)CC[C@H](O)C(C)(C)[C@@H]5CC[C@]43C)[C@H]2[C@@H]1C [Taraxasterol],Lipase (RFU),974.5848 RFU
C[C@H](CCC(=O)NCCS(=O)(=O)[O-])[C@H]1CC[C@H]2[C@@H]3[C@H](O)C[C@@H]4C[C@H](O)CC[C@]4(C)[C@H]3CC[C@]12C.[Na+] [Taurochenodeoxycholic acid (sodium)],Lipase (RFU),1047.423 RFU
C[C@H](CCC(=O)NCCS(=O)(=O)O)[C@H]1CC[C@H]2[C@@H]3[C@H](O)C[C@@H]4C[C@H](O)CC[C@]4(C)[C@H]3C[C@H](O)[C@]12C [Taurocholic Acid],Lipase (RFU),1299.592 RFU and 949.1523 RFU and 900.9931 RFU
C[C@H](CCC(=O)NCCS(=O)(=O)O)[C@H]1CC[C@H]2[C@@H]3[C@H](O)C[C@@H]4C[C@H](O)CC[C@]4(C)[C@H]3C[C@H](O)[C@]12C [Taurocholic acid (sodium salt hydrate)],Lipase (RFU),1148.675 RFU
C[C@H](CCC(=O)NCCS(=O)(=O)O)[C@H]1CC[C@H]2[C@@H]3[C@H](O)C[C@@H]4C[C@H](O)CC[C@]4(C)[C@H]3C[C@H](O)[C@]12C [Taurocholic acid (sodium)],Lipase (RFU),1062.302 RFU and 748.8784 RFU
C[C@H](CCC(=O)NCCS(=O)(=O)O)[C@H]1CC[C@H]2[C@@H]3[C@@H](O)C[C@@H]4C[C@H](O)CC[C@]4(C)[C@H]3CC[C@]12C.O.O [Tauroursodeoxycholate (dihydrate)],Lipase (RFU),1204.528 RFU
C[C@H](CCC(=O)NCCS(=O)(=O)[O-])[C@H]1CC[C@H]2[C@@H]3[C@@H](O)C[C@@H]4C[C@H](O)CC[C@]4(C)[C@H]3CC[C@]12C.[Na+] [Tauroursodeoxycholate (sodium)],Lipase (RFU),939.6362 RFU
COc1cc(O)c2c(=O)cc(-c3ccccc3)oc2c1 [Tectochrysin],Lipase (RFU),890.4365 RFU
CCCCCCCCCCCCCC(=O)O[C@H](CC(=O)[O-])C[N+](C)(C)C [Tetradecanoylcarnitine],Lipase (RFU),951.8251 RFU
C[C@]12CC[C@@H](O)C[C@H]1CC[C@@H]1[C@@H]2[C@@H](O)C[C@@]2(C)[C@H]1CC[C@]2(O)C(=O)CO [Tetrahydrocortisol],Lipase (RFU),1127.321 RFU
O=S(=O)(O)SSS(=O)(=O)O [Tetrathionate],Lipase (RFU),924.2846 RFU
OP(O)(O)=S [Thiophosphate],Lipase (RFU),918.3175 RFU and 750.1825 RFU
O=S(O)(O)=S [Thiosulfate],Lipase (RFU),1139.701 RFU
O=CC[C@H](O)[C@H](O)CO [Thyminose],Lipase (RFU),811.3551 RFU
Cc1ccc(C(C)C)c(O)c1 [Thymol],Lipase (RFU),1327.554 RFU and 943.6199 RFU
CC(C)=CCC[C@H](C)[C@@H]1CC[C@]2(C)C3=C(CC[C@@]12C)[C@@]1(C)CC[C@H](O)C(C)(C)[C@@H]1CC3 [Tirucallol],Lipase (RFU),1060.924 RFU
C[C@H]1CC[C@]2(NC1)O[C@H]1C[C@H]3[C@@H]4CC[C@H]5C[C@@H](O)CC[C@]5(C)[C@H]4CC[C@]3(C)[C@H]1[C@@H]2C [Tomatidine],Lipase (RFU),1057.071 RFU
C[C@H]1CC[C@]2(NC1)O[C@H]1C[C@H]3[C@@H]4CC[C@H]5C[C@@H](O[C@@H]6O[C@H](CO)[C@H](O[C@@H]7O[C@H](CO)[C@@H](O)[C@H](O[C@@H]8OC[C@@H](O)[C@H](O)[C@H]8O)[C@H]7O[C@@H]7O[C@H](CO)[C@@H](O)[C@H](O)[C@H]7O)[C@H](O)[C@H]6O)CC[C@]5(C)[C@H]4CC[C@]3(C)[C@H]1[C@@H]2C [Tomatine],Lipase (RFU),635.5707 RFU
COc1cc(O[C@@H]2O[C@H](CO)[C@@H](O)[C@H](O)[C@H]2O)c2c(O)c(C(C)=O)c(C)cc2c1 [Torachrysone-8-O-b-D-glucoside],Lipase (RFU),1039.734 RFU
O=c1cc(-c2ccccc2)oc2cc(O)cc(O[C@@H]3O[C@H](CO)[C@@H](O)[C@H](O)[C@H]3O)c12 [Toringin],Lipase (RFU),1102.623 RFU
COc1ccc(C[C@H]2COC(=O)[C@]2(O)Cc2ccc(O[C@@H]3O[C@H](CO)[C@@H](O)[C@H](O)[C@H]3O)c(OC)c2)cc1OC [Tracheloside],Lipase (RFU),940.7065 RFU
COc1cc(-c2cc(=O)c3c(O)cc(O)cc3o2)cc(OC)c1O [Tricin],Lipase (RFU),691.2218 RFU
CCOP(=O)(OCC)OCC [Triethyl Phosphate],Lipase (RFU),963.8293 RFU
CCCCC/C=C\C/C=C\CCCCCCCC(=O)OCC(COC(=O)CCCCCCC/C=C\C/C=C\CCCCC)OC(=O)CCCCCCC/C=C\C/C=C\CCCCC [Trilinolein],Lipase (RFU),834.4039 RFU
O=C(CCc1ccc(O)cc1)c1c(O)cc(O[C@@H]2O[C@H](CO)[C@@H](O)[C@H](O)[C@H]2O)cc1O [Trilobatin],Lipase (RFU),813.3377 RFU and 1211.862 RFU
C[N+](C)(C)[O-] [Trimethylamine N-oxide],Lipase (RFU),948.4231 RFU and 1147.152 RFU
CC1=C(O)C(=O)C=C2C1=CC=C1[C@@]2(C)CC[C@@]2(C)[C@@H]3C[C@](C)(C(=O)O)CC[C@]3(C)CC[C@]12C [Tripterin],Lipase (RFU),952.6128 RFU
CCCCCCCCCC(=O)OCC(COC(=O)CCCCCCCCC)OC(=O)CCCCCCCCC [Trisdecanoin],Lipase (RFU),969.1379 RFU
CN1[C@@H]2CC[C@H]1CC(=O)C2 [Tropinone],Lipase (RFU),856.4439 RFU
O=C(CO)[C@@H](O[C@H]1O[C@H](CO)[C@@H](O)[C@H](O)[C@H]1O)[C@H](O)[C@H](O)CO [Turanose],Lipase (RFU),1221.239 RFU and 697.9672 RFU
CC[C@H]1OC(=O)C[C@@H](O)[C@H](C)[C@@H](O[C@@H]2O[C@H](C)[C@@H](O[C@H]3C[C@@](C)(O)[C@@H](O)[C@H](C)O3)[C@H](N(C)C)[C@H]2O)[C@@H](CC=O)C[C@@H](C)C(=O)/C=C/C(C)=C/[C@@H]1CO[C@@H]1O[C@H](C)[C@@H](O)[C@@H](OC)[C@H]1OC [Tylosin (phosphate)],Lipase (RFU),1132.19 RFU
CC[C@H]1OC(=O)C[C@@H](O)[C@H](C)[C@@H](O[C@@H]2O[C@H](C)[C@@H](O[C@H]3C[C@@](C)(O)[C@@H](O)[C@H](C)O3)[C@H](N(C)C)[C@H]2O)[C@@H](CC=O)C[C@@H](C)C(=O)/C=C/C(C)=C/[C@@H]1CO[C@@H]1O[C@H](C)[C@@H](O)[C@@H](OC)[C@H]1OC.O=C(O)C(O)C(O)C(=O)O [Tylosin (tartrate)],Lipase (RFU),942.0391 RFU
